How the values were obtained:
[1] = molecular target: Cyclin-dependent kinase 2 (Homo sapiens, UniProt P24941); assay: Inhibition of CDK2 (unknown origin)
Aurora kinase A = molecular target: T1, Aurora kinase A (Homo sapiens, UniProt O14965); assay: Inhibition of Aurora A (unknown origin) using Tamra-PKAtide as substrate by fluorescence polarization assay
T1 sequence (O14965 whole entry): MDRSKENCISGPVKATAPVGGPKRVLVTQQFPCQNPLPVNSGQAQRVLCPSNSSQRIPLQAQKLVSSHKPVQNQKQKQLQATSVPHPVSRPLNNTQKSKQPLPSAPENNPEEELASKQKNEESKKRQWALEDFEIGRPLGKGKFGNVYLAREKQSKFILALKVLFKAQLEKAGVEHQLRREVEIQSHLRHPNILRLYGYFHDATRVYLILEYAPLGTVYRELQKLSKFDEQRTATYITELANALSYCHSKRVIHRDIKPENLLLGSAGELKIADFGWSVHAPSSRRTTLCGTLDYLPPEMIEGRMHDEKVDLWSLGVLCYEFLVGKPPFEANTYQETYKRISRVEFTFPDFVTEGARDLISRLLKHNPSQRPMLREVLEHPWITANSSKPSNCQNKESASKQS

[2] = Clearance in monkey at 1 mg/kg, iv; assay type: ADME, organism-based, Macaca mulatta; conditions: rhesus monkey, in vivo
[3] = molecular target: Glycogen synthase kinase-3 beta (Homo sapiens, UniProt P49841); assay: Inhibition of GSK3b (unknown origin)
[4] = molecular target: T2, Serine/threonine-protein kinase 3 (Homo sapiens, UniProt Q13188); assay: Inhibition of MST2 (unknown origin)
T2 sequence (Q13188 whole entry): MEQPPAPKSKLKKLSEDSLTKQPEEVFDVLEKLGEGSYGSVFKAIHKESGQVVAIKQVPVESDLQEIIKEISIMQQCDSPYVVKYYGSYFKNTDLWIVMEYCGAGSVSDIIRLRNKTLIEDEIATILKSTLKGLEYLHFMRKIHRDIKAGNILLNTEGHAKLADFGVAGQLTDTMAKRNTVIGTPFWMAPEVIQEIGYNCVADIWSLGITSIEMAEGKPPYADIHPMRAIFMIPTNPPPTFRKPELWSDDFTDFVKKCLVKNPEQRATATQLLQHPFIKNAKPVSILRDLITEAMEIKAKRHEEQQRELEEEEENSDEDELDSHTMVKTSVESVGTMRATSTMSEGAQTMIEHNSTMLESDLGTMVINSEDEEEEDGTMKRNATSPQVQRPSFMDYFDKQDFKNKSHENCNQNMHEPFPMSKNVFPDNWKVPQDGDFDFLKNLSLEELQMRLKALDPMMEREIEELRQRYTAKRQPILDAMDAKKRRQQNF

[5] = molecular target: Rho-associated protein kinase 2 (Homo sapiens, UniProt O75116); assay: Inhibition of ROCK2 (unknown origin)
[6] = molecular target: Protein kinase C alpha type (Homo sapiens, UniProt P17252); assay: Inhibition of PKCA (unknown origin)
Ephrin type-B receptor 4 = molecular target: T3, Ephrin type-B receptor 4 (Homo sapiens, UniProt P54760); assay: Inhibition of EPHB4 (unknown origin)
T3 sequence (P54760 whole entry): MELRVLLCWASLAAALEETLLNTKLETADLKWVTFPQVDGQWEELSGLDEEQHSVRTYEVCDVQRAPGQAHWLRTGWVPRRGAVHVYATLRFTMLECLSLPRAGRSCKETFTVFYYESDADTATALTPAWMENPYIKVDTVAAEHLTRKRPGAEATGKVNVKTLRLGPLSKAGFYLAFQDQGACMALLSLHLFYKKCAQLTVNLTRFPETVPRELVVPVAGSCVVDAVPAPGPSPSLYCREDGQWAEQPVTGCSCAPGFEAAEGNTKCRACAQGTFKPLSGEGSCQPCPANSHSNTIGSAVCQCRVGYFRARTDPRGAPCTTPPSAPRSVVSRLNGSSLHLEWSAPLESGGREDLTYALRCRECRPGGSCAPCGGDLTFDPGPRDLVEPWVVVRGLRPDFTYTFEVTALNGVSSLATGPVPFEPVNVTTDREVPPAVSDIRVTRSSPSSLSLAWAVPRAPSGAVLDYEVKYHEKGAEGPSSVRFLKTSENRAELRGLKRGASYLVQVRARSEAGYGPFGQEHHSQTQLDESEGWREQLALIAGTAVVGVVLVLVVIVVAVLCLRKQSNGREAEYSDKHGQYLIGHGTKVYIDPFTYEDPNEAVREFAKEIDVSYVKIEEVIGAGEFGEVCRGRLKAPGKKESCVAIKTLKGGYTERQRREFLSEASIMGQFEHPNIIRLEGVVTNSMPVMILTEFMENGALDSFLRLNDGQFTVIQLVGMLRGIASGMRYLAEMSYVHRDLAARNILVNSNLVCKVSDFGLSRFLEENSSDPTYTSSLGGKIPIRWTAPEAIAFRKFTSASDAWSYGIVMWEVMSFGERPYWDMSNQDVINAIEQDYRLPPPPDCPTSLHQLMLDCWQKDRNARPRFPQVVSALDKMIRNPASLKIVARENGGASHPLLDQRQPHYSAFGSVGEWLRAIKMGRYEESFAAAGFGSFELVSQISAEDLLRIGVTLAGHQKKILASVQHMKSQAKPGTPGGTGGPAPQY

[7] = molecular target: Epidermal growth factor receptor (Homo sapiens, UniProt P00533); assay: Inhibition of EGFR (unknown origin)
[8] = molecular target: Mitogen-activated protein kinase 1 (Homo sapiens, UniProt P28482); assay: Inhibition of ERK2 (unknown origin)
[9] = molecular target: T4, Inhibitor of nuclear factor kappa-B kinase subunit beta (Homo sapiens, UniProt O14920); assay: Inhibition of IKKB (unknown origin)
T4 sequence (O14920 whole entry): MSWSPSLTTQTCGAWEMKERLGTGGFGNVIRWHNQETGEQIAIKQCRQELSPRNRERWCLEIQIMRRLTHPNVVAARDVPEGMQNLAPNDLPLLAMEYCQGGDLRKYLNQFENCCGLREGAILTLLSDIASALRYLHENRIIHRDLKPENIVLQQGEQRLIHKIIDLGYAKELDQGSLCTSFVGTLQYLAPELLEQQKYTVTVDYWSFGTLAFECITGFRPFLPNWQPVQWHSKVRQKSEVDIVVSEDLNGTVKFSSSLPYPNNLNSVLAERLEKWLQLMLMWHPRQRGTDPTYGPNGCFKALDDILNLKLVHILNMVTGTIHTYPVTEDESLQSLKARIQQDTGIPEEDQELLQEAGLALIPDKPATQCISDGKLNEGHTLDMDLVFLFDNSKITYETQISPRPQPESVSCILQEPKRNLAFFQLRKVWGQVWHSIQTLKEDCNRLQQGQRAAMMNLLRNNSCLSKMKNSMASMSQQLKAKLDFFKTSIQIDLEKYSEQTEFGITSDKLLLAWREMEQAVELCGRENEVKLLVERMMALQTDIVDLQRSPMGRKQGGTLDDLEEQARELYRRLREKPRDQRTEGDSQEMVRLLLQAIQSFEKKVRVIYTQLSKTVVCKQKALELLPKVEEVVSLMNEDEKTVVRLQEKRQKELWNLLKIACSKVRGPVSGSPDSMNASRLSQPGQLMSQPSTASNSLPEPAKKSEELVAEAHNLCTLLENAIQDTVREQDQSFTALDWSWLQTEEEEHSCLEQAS

Sequence of Glycogen synthase kinase-3 beta (P49841 whole entry): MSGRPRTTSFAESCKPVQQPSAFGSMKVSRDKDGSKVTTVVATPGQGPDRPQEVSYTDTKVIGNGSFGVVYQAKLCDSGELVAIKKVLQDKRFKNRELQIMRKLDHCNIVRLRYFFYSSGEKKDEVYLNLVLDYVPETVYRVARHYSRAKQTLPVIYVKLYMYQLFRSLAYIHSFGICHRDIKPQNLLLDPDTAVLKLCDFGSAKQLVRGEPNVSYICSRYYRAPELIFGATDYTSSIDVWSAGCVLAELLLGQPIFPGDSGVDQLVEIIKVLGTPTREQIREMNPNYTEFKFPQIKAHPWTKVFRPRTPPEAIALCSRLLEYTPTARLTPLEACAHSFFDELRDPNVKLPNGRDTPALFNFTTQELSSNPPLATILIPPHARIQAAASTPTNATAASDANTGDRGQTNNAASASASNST
Sequence of Epidermal growth factor receptor (P00533 whole entry): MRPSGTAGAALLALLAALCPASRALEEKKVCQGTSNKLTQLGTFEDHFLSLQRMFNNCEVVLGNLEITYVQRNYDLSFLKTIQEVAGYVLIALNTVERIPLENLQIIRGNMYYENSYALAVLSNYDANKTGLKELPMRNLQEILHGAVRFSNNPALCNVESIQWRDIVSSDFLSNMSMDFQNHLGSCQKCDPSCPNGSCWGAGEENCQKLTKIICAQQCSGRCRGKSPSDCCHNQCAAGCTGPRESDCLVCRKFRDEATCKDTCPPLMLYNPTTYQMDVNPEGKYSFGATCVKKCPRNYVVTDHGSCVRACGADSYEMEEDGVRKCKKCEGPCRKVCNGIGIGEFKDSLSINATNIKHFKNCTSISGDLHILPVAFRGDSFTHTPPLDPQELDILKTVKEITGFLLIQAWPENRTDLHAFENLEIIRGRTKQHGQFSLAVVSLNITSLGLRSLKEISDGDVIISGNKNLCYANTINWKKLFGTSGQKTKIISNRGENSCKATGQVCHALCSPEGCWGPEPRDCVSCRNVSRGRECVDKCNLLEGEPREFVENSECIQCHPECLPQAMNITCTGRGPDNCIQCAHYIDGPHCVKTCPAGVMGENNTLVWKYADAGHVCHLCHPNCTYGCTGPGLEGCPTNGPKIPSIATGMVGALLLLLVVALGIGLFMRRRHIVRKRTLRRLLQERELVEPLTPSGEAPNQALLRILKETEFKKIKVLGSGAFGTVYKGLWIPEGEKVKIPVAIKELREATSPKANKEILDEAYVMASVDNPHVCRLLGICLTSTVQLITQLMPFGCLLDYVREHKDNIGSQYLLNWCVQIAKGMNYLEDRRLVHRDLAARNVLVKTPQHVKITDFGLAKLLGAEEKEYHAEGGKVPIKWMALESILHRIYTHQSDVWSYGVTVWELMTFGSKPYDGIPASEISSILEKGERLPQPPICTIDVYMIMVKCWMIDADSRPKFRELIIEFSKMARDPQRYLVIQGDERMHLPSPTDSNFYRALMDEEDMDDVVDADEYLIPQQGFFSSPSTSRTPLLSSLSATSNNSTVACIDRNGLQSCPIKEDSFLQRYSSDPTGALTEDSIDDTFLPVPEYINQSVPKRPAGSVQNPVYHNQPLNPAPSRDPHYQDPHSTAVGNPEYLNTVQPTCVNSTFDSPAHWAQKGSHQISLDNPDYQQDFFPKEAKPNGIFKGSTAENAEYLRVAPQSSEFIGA
Sequence of Mitogen-activated protein kinase 1 (P28482 whole entry): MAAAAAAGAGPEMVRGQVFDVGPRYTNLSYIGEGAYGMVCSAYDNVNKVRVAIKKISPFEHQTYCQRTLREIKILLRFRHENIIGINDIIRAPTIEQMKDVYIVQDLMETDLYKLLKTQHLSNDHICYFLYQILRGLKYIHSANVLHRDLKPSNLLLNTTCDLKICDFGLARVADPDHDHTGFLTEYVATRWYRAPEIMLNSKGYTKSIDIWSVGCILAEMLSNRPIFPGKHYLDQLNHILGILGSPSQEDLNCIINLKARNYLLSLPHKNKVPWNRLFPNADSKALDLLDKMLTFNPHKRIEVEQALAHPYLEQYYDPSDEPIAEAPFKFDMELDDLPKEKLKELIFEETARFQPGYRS
Sequence of Rho-associated protein kinase 2 (O75116 whole entry): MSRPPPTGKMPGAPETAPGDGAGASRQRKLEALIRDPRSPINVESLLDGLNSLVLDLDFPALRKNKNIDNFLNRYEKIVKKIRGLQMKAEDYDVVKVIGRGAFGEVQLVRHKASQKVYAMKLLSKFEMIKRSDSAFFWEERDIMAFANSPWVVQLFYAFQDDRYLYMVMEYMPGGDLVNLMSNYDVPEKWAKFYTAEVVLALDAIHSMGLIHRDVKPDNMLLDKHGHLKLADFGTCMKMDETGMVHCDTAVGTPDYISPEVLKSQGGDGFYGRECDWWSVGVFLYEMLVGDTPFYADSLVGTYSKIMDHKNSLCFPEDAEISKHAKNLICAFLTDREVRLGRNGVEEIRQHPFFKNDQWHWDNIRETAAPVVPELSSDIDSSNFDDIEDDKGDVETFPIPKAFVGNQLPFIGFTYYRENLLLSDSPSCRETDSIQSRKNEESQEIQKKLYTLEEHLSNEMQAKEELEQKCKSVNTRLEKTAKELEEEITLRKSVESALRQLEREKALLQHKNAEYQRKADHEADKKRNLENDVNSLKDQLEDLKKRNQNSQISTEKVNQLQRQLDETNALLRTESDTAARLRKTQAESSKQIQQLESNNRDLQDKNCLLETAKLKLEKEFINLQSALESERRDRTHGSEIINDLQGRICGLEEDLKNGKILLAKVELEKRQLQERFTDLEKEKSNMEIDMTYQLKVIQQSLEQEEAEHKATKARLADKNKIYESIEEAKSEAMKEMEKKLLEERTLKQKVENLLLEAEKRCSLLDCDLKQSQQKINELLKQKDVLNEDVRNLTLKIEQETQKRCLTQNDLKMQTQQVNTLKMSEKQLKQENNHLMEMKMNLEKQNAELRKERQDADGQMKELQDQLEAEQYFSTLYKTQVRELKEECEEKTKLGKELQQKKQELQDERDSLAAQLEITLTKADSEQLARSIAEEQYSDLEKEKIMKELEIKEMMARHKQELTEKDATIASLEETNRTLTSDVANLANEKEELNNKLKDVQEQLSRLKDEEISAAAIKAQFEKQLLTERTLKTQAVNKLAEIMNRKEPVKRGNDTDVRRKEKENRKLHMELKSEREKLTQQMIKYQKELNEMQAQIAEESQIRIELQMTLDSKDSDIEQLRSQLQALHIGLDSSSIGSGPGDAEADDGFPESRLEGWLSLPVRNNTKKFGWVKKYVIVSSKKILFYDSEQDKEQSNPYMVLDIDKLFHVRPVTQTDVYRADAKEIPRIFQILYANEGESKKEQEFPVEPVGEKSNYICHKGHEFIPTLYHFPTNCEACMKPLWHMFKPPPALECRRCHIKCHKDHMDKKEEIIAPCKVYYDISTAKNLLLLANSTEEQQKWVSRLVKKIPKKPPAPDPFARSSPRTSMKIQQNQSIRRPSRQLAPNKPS

Row | SMILES | IC50 [1] [nM] | IC50 (Aurora kinase A) [nM] | clearance [2] [mL/min/kg] | IC50 [3] [nM] | IC50 [4] [nM] | IC50 [5] [nM] | IC50 [6] [nM] | IC50 (Ephrin type-B receptor 4) [nM] | IC50 [7] [nM] | IC50 [8] [nM] | IC50 [9] [nM]
1 | Cc1cn2c(-c3cn[nH]c3)cnc2c(Nc2cc(Cc3ccccn3)ns2)n1 | > 500 | < 4 | 28 | > 500 | > 500 | > 500 | > 500 | 390 | > 500 | > 500 | > 500
2 | CCN(CCO)Cc1cc(Nc2nc(C)cn3c(-c4cn[nH]c4)cnc23)sn1 | > 500 | < 4 |  | > 500 | > 500 | > 500 | > 500 | 100 | > 500 | > 500 | > 500
3 | Cc1cn2c(-c3cn[nH]c3)cnc2c(Nc2cc(C(NC(C)(C)C)c3ccccn3)ns2)n1 (single isomer, unassigned; (+)) | > 1000 | ≤ 4 | 7.4 | > 1000 | > 1000 | > 1000 | > 1000 | 38 | > 1000 | > 1000 | > 1000
